Experimental data: ChEMBL document CHEMBL4138190, “Anti-amyloidogenic and anti-apoptotic effect of α-bisabolol against Aβ induced neurotoxicity in PC12 cells” (Eur J Med Chem, 2018)
Calls of active or inactive are those of the source. No cut-off for these calls is given here.

Tests used:
[1] = target: Amyloid-beta precursor protein (Homo sapiens) (UniProt P05067); experiment: Disaggregation of amyloid beta (25 to 35 residues) (unknown origin) preformed fibrils at 5 ug/ml after 96 hrs to 9 days by thioflavin T dye based confocal laser scanning microscopy
[2] = target: Amyloid-beta precursor protein (Homo sapiens) (UniProt P05067); experiment: (§1) Inhibition of amyloid beta (25 to 35 residues) (unknown origin)-induced toxicity in rat PC12 cells assessed as protection against amyloid beta (25 to 35 residues)-induced apoptosis by measuring necrotic cells at 5 ug/ml by Annexin V-FITC/propidium iodide staining-based flow cytometric method (reference value: 0.73%); format: cell-based; set-up: scale not given: the % may be the effect or the level left
[3] = target: Amyloid-beta precursor protein (Homo sapiens) (UniProt P05067); experiment: Inhibition of amyloid beta (25 to 35 residues) (unknown origin) aggregation at 5 ug/ml after 24 to 48 hrs by FTIR spectroscopy
[4] = target: Amyloid-beta precursor protein (Homo sapiens) (UniProt P05067); experiment: Disaggregation of amyloid beta (25 to 35 residues) (unknown origin) preformed fibrils at 5 ug/ml after 96 hrs to 9 days by ThT-based fluorescence spectroscopic method
[5] = target: Amyloid-beta precursor protein (Homo sapiens) (UniProt P05067); experiment: Inhibition of amyloid beta (25 to 35 residues) (unknown origin) aggregation at 5 ug/ml after 24 to 48 hrs by ThT-based fluorescence spectroscopic method
[6] = target: Amyloid-beta precursor protein (Homo sapiens) (UniProt P05067); experiment: as §1, with “early apoptotic” for “necrotic”, “46%)” for “0.73%)”; format: cell-based; set-up: scale not given: the % may be the effect or the level left
[7] = target: Amyloid-beta precursor protein (Homo sapiens) (UniProt P05067); experiment: (§2) Inhibition of amyloid beta (25 to 35 residues) (unknown origin)-induced toxicity in rat PC12 cells assessed as increase in cell viability at 2 to 10 ug/ml preincubated for 2 hrs followed by amyloid beta (25 to 35 residues) addition measured after 24 hrs by MTT dye based light microscopic assay (reference value: 48%)
[8] = target: Amyloid-beta precursor protein (Homo sapiens) (UniProt P05067); experiment: as §1, with “late apoptotic” for “necrotic”, “4.56%)” for “0.73%)”; format: cell-based; set-up: scale not given: the % may be the effect or the level left
[9] = target: Amyloid-beta precursor protein (Homo sapiens) (UniProt P05067); experiment: Inhibition of amyloid beta (25 to 35 residues) (unknown origin)-induced toxicity in rat PC12 cells assessed as cell survival at 5 ug/ml after 1 to 3 weeks by clonogenic assay (reference value: 25%); format: cell-based
[10] = target: Amyloid-beta precursor protein (Homo sapiens) (UniProt P05067); experiment: Inhibition of amyloid beta (25 to 35 residues) (unknown origin) aggregation at 5 ug/ml after 24 to 48 hrs by phosphotungstic acid staining based transmission electron microscopy
[11] = target: Amyloid-beta precursor protein (Homo sapiens) (UniProt P05067); experiment: Inhibition of amyloid beta (25 to 35 residues) (unknown origin) aggregation at 5 ug/ml after 24 to 48 hrs by thioflavin T dye based confocal laser scanning microscopy
[12] = target: Amyloid-beta precursor protein (Homo sapiens) (UniProt P05067); experiment: Disaggregation of amyloid beta (25 to 35 residues) (unknown origin) preformed fibrils at 5 ug/ml after 96 hrs to 9 days by phosphotungstic acid staining based transmission electron microscopy
[13] = target: Amyloid-beta precursor protein (Homo sapiens) (UniProt P05067); experiment: as §1, with “viable” for “necrotic”, “48.71%)” for “0.73%)”; format: cell-based
[14] = target: Amyloid-beta precursor protein (Homo sapiens) (UniProt P05067); experiment: Disaggregation of amyloid beta (25 to 35 residues) (unknown origin) preformed fibrils at 5 ug/ml after 96 hrs to 9 days by FTIR spectroscopy
Acetylcholinesterase = Acetylcholinesterase (Homo sapiens, UniProt P22303); experiment: Inhibition of AChE (unknown origin) preincubated for 45 mins followed by ATCI substrate addition measured for 3 mins
[15] = target: Amyloid-beta precursor protein (Homo sapiens) (UniProt P05067); experiment: as §2, with “50” for “2 to 10”; conditions: at 50 µg/mL
[16] = target: Amyloid-beta precursor protein (Homo sapiens) (UniProt P05067); experiment: as §1, with “measuring viable” for “measuring necrotic”, “at 50” for “at 5”, “value: 48.71%)” for “value: 0.73%)”; format: cell-based; conditions: at 50 µg/mL
[17] = target: Amyloid-beta precursor protein (Homo sapiens) (UniProt P05067); conditions: at 50 µg/mL
Description: Inhibition of amyloid beta (25 to 35 residues) (unknown origin)-induced toxicity in rat PC12 cells assessed as cell survival at 50 ug/ml after 1 to 3 weeks by clonogenic assay (Rvb = 25%)

[18] = target: Amyloid-beta precursor protein (Homo sapiens) (UniProt P05067); experiment: as §1, with “measuring early apoptotic” for “measuring necrotic”, “at 50” for “at 5”, “value: 46%)” for “value: 0.73%)”; format: cell-based; set-up: scale not given: the % may be the effect or the level left; conditions: at 50 µg/mL
[19] = target: Amyloid-beta precursor protein (Homo sapiens) (UniProt P05067); experiment: as §1, with “measuring late apoptotic” for “measuring necrotic”, “at 50” for “at 5”, “value: 4.56%)” for “value: 0.73%)”; format: cell-based; set-up: scale not given: the % may be the effect or the level left; conditions: at 50 µg/mL
[20] = target: Amyloid-beta precursor protein (Homo sapiens) (UniProt P05067); experiment: as §1, with “at 50” for “at 5”; format: cell-based; set-up: scale not given: the % may be the effect or the level left; conditions: at 50 µg/mL
[21] = target: Amyloid-beta precursor protein (Homo sapiens) (UniProt P05067); experiment: Disaggregation of amyloid beta (25 to 35 residues) (unknown origin) preformed fibrils at 50 ug/ml after 96 hrs to 9 days by ThT-based fluorescence spectroscopic method
[22] = target: Amyloid-beta precursor protein (Homo sapiens) (UniProt P05067); experiment: Inhibition of amyloid beta (25 to 35 residues) (unknown origin) aggregation at 50 ug/ml after 24 to 48 hrs by thioflavin T dye based confocal laser scanning microscopy
[23] = target: Amyloid-beta precursor protein (Homo sapiens) (UniProt P05067); experiment: Inhibition of amyloid beta (25 to 35 residues) (unknown origin) aggregation at 50 ug/ml after 24 to 48 hrs by FTIR spectroscopy
[24] = target: Amyloid-beta precursor protein (Homo sapiens) (UniProt P05067); experiment: Disaggregation of amyloid beta (25 to 35 residues) (unknown origin) preformed fibrils at 50 ug/ml after 96 hrs to 9 days by FTIR spectroscopy
[25] = target: Amyloid-beta precursor protein (Homo sapiens) (UniProt P05067); experiment: Disaggregation of amyloid beta (25 to 35 residues) (unknown origin) preformed fibrils at 50 ug/ml after 96 hrs to 9 days by thioflavin T dye based confocal laser scanning microscopy

Amyloid-beta precursor protein (Homo sapiens), sequence (P05067 whole entry, the tested form may be a part): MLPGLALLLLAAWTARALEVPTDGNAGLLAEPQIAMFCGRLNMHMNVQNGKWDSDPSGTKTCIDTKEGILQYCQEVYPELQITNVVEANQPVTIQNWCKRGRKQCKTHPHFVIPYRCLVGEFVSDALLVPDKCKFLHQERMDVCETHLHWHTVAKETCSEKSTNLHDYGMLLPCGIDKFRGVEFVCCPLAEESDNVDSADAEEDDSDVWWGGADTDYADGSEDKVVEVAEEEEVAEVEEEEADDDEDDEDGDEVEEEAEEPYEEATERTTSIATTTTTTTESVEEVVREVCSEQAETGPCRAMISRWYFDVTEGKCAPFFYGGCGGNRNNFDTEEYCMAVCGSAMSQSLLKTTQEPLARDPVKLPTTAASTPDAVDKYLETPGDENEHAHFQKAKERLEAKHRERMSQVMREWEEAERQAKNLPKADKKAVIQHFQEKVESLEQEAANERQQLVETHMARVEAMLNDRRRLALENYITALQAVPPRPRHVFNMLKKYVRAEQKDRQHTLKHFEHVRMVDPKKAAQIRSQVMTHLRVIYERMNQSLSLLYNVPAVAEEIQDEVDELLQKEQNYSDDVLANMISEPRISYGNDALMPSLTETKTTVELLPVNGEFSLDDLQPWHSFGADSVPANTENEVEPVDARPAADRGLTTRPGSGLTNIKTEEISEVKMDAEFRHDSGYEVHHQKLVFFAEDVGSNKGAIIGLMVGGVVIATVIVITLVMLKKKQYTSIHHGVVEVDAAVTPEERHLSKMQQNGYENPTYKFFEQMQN
Acetylcholinesterase, sequence (P22303 whole entry): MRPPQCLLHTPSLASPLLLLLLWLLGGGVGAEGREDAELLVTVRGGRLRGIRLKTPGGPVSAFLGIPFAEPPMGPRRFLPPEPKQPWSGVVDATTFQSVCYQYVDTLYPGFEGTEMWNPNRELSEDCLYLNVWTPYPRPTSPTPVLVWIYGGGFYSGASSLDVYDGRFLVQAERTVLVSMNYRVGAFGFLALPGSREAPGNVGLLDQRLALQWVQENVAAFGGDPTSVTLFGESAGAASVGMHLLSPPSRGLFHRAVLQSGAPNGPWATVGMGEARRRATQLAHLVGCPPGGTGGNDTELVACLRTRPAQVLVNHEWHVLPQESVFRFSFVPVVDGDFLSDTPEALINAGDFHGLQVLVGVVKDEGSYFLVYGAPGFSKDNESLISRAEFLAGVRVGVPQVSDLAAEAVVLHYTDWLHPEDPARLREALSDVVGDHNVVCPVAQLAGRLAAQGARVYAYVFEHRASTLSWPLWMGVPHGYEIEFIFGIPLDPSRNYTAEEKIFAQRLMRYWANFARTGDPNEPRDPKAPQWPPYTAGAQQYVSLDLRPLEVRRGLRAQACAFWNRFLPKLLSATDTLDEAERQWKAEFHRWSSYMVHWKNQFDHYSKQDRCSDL

Which results are given for `CC(C)=CCC[C@@](C)(O)[C@H]1CC=C(C)CC1`?
Activity [1]: Active; Activity [2]: 0.62%; inhibition [3]: Active; Activity [4]: Active; inhibition [5]: Active; Activity [6]: 1.32%; Activity [7]: > 80%; Activity [8]: 0.31%; Survival [9]: 96%; inhibition [10]: Active; inhibition [11]: Active; Activity [12]: Active; Activity [13]: 97.8%; Activity [14]: Active; IC50 (Acetylcholinesterase): < 45 µM

`COc1cc2c(cc1OC)C(=O)C(CC1CCN(Cc3ccccc3)CC1)C2` (stereo unspecified) was tested. Which Activity [15] did it give?
The Activity was 81%.

And the Activity [16]?
The Activity was 96.2%.

And the Survival [17]?
Its Survival is 96%.

What about the Activity [18] of the same compound?
The Activity was 1.58%.

What about the Activity [19] of the same compound?
Its Activity is 0.26%.

What about the Activity [20] of the same compound?
The Activity was 2%.

Which Activity [21] does the source give for `COc1ccc2c3c1O[C@H]1C[C@@H](O)C=C[C@@]31CCN(C)C2` here?
The Activity was “Active”.

What about the inhibition [22] of the same compound?
Its inhibition is “Active”.

What about the inhibition [23] of the same compound?
The inhibition was “Active”.

What about the Activity [24] of the same compound?
Its Activity is “Active”.

What about the Activity [25] of the same compound?
The Activity was “Active”.
